From patent US20160200733A1, “SUBSTITUTED THIENO[2,3-B]PYRIDINE-2-CARBOXAMIDE ANALOGS AS POSITIVE ALLOSTERIC MODULATORS OF THE MUSCARINIC ACETYLCHOLINE RECEPTOR M4” (Vanderbilt University, priority 2013, published 2016)

Molecular target: T1, mAChR hM4 (Homo sapiens, UniProt P08173)
T1 construct: expressed in transfected cells; host or cells: CHO-K1 (Chinese hamster ovary) cells
T1 sequence (P08173 1-479): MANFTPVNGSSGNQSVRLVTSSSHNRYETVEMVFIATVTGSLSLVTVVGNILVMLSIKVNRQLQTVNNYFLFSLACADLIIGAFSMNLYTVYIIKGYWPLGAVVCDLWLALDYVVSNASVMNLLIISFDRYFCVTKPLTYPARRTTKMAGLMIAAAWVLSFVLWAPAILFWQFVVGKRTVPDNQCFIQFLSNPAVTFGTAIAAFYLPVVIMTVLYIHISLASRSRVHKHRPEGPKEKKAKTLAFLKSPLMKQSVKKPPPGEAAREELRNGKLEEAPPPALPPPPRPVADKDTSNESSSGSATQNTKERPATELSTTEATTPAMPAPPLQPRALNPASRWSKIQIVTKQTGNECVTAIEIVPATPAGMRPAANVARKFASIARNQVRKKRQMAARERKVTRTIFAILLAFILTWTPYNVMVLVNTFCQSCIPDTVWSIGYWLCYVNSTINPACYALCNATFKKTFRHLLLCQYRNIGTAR
Assay: mAChR M4 cell-based functional assay (calcium flux, potentiation of EC20 acetylcholine response)
Details: mAChR hM4 cell-line; for Emax at 30 µM: % ACh maximum at 30 μM; for EC50: >10,000 estimated for low potency compounds lacking a plateau
Outline: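 CHO-K1 cells expressing human M4, loaded with Fluo-4 Ca2+ dye; potentiation of an EC20 acetylcholine response read as increase in fluorescence static ratio. EC50 and Emax from concentration-dependent increase over the EC20 response.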

Structure (SMILES)	Emax at 30 µM [%]	EC50 [µM]
Cc1cnc2sc(C(=O)NC3CN(c4cccnc4)C3)cc2c1C [Compound 103, 4,5-dimethyl-N-(1-(pyridin-3-yl)azetidin-3-yl)thieno[2,3-b]pyridine-2-carboxamide]	76	0.58
Cc1nc2sc(C(=O)N3CCC3)c(-c3cnn(C)c3)c2c(C)c1Cl [Compound 97, azetidin-1-yl(5-chloro-4,6-dimethyl-3-(1-methyl-1H-pyrazol-4-yl)thieno[2,3-b]pyridin-2-yl)methanone]		> 10
Cc1nc2sc(C(=O)N3CCC(c4ccccc4)C3)c(C3CC3)c2c(C)c1Cl (stereo not shown) [Compound 64, (5-chloro-3-cyclopropyl-4,6-dimethylthieno[2,3-b]pyridin-2-yl)(3-phenylpyrrolidin-1-yl)methanone]		> 10
Cc1cc(C)c2cc(C(=O)NC3CN(c4ccc(C(F)(F)F)nc4)C3)sc2n1 [Compound 76, 4,6-dimethyl-N-(1-(6-(trifluoromethyl)pyridin-3-yl)azetidin-3-yl)thieno[2,3-b]pyridine-2-carboxamide]		> 10
Cc1cc(C)c2cc(C(=O)NCc3ccc(-c4ccnnc4)s3)sc2n1 [Compound 79, 4,6-dimethyl-N-((5-(pyridazin-4-yl)thiophen-2-yl)methyl)thieno[2,3-b]pyridine-2-carboxamide]		> 10
Cc1cc(C)c2c(Br)c(C(=O)NC3(C)COC3)sc2n1 [Compound 8, 3-bromo-4,6-dimethyl-N-(3-methyloxetan-3-yl)thieno[2,3-b]pyridine-2-carboxamide]	59	3.7

The next lines start with the values.

Emax at 30 µM [%]	EC50 [µM]	Structure (SMILES)
41	> 10	Cc1cc(C)c2c(Br)c(C(=O)NC3CCC3)sc2n1 [Compound 6, 3-bromo-N-cyclobutyl-4,6-dimethylthieno[2,3-b]pyridine-2-carboxamide]
67	0.53	Cc1nc2sc(C(=O)NC3COC3)c(Cl)c2c(C)c1Cl [Compound 126, 3,5-dichloro-4,6-dimethyl-N-(oxetan-3-yl)thieno[2,3-b]pyridine-2-carboxamide]
	> 10	Cc1cnc2sc(C(=O)NC3CN(c4ccc(C(F)(F)F)nc4)C3)cc2c1C [Compound 100, 4,5-dimethyl-N-(1-(6-(trifluoromethyl)pyridin-3-yl)azetidin-3-yl)thieno[2,3-b]pyridine-2-carboxamide]
79	1.2	Cc1nc2sc(C(=O)NC3CCOC3)c(C)c2c(C)c1Cl (stereo not shown) [Compound 57, 5-chloro-3,4,6-trimethyl-N-(tetrahydrofuran-3-yl)thieno[2,3-b]pyridine-2-carboxamide]
	> 10	COc1ccc(CNC(=O)c2sc3nc(C)cc(C)c3c2Br)cc1 [Compound 10, 3-bromo-N-(4-methoxybenzyl)-4,6-dimethylthieno[2,3-b]pyridine-2-carboxamide]
